Earlier results, collected in publication PMC6816764 (Journal of the American Chemical Society, 2018).

Columns and labels:
[1] = cited from earlier work
[2] = in nitrogen-sparged H2O; cited from earlier work

| Compound | ΦΔ of standard ([1]; in CH3OH) | Φem of reference [2] | 1O2 production efficiency ([1]; ref 58a) |
| --- | --- | --- | --- |
| [Ru+2].c1ccc(-c2ccccn2)nc1.c1ccc(-c2ccccn2)nc1.c1ccc(-c2ccccn2)nc1 [[Ru(bpy)3]^2+] | 0.81 | 0.042 | – |
| [Ru(tpy)(dppn)(py)]^2+ | – | – | 98% |
